Data taken from article PMC3795266, “Nitrogen Oxyanion-dependent Dissociation of a Two-component Complex That Regulates Bacterial Nitrate Assimilation” (The Journal of Biological Chemistry, 2013).

What was measured:
NasS-NasT = target: T1, NasS-NasT (Paracoccus denitrificans, UniProt A1BAH4); assay: intrinsic tryptophan fluorescence quench (ex […] nm, em […] nm); assay type: binding; details: read-out: KD^app
T1 construct: gene Pden_4454; co-expressed from pET-24a/nasTS in E. coli BL21(DE3); N-terminal His6-tag on NasT (tag kept), NasS untagged; NasS ~42 kDa, NasT ~22 kDa; heterotetramer ~132 kDa (two NasS, two NasT); with Response regulator NasT, ANTAR domain-containing positive regulator
T1 sequence (A1BAH4 1-390): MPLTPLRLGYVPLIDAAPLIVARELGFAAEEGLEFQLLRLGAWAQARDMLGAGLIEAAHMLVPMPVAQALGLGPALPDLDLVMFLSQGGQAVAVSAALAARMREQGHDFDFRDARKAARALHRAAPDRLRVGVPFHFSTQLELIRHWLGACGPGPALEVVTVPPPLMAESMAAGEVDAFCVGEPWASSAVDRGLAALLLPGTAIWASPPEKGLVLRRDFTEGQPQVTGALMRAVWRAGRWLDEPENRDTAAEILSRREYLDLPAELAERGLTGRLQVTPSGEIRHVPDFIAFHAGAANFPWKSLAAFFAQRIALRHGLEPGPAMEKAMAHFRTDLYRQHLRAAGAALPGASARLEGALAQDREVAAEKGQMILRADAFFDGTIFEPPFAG
T1 sequence (A1BAH5 1-196 partner): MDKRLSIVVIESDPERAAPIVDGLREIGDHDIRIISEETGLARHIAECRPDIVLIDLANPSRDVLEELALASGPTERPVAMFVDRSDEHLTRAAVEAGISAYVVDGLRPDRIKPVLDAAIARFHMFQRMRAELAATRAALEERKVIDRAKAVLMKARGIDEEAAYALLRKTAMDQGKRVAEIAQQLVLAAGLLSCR

[1] = target: NasT (His-tagged recombinant P. denitrificans NasT) (Paracoccus denitrificans PD1222); assay: AUC; sedimentation equilibrium of the purified complex, no NO3-; 50 mM NaHEPES, 100 mM NaCl, pH 7.5; 7.5, 12 and 16 krpm; 10 uM protein; ideal one-component fit
[2] = target: NasT (His-tagged recombinant P. denitrificans NasT) (Paracoccus denitrificans PD1222); assay: SEC; analytical Superdex 200 HR 10/30, equilibration buffer supplemented with 1 mM NO3-; fractions analysed by SDS-PAGE

Molecule | Kd (NasS-NasT) | further results
O=NO [NO2^−] | 94 ± 12 µM | –
O=[N+]([O-])O [NO3^−] | 15 ± 2 µM | –
NasS (recombinant P. denitrificans NasS) (natural protein) | – | stoichiometry N (NasS per NasT (2:2)) [1]: 1
NasT (His-tagged recombinant P. denitrificans NasT) (natural protein) | – | stoichiometry N [2]: 6 monomers
